Measurements from the METLIN SMRT retention time set (Domingo-Almenara et al. 2019).

Test: gradient 5% acetonitrile 3 min, to 50% in 2 min, to 85% in 15 min, held 3 min, 100 µL/min
Conditions: column: Zorbax Extend-C18 2.1 x 50 mm; eluents: water / acetonitrile, 0.1% formic acid
Procedure, shortened: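 Pure standards were analyzed in mixtures of ~100 molecules using HPLC coupled to a quadrupole time-of-flight mass spectrometer, in both positive and negative ionization mode. Separation used a Zorbax Extend-C18 column (2.1 × 50 mm, 1.8 μm) at 100 μL/min, with water and acetonitrile each containing 0.1% formic acid. Dead and dwell volumes were 40 μL and 900 μL, and data were collected over 3 months. Retention time was read from computationally picked adduct peaks, each inspected manually.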

| SMILES | RP-LC retention time [s] |
| --- | --- |
| O=C(CCc1cc2ccccc2[nH]c1=O)N1CCN(C(=O)c2ccco2)CC1 | 638 |
| CCCN(C(=O)CC)c1nc(-c2ccc(C)cc2)cs1 | 1330 |
| COC(=O)c1ccc2nc(NC(=O)c3cc(C)oc3C)sc2c1 | 947 |
| Cc1cc(S(=O)(=O)N2C[C@@H](F)C[C@H]2C(=O)N2CCCCC2)ccc1Cl | 885 |
| O=C(NC1CCN(c2cc(N3CCCC3)cnn2)C1)C1CC1 (stereo not given) | 578 |
| CCC(CC)C(=O)Nc1nc(-c2ccc3c(c2)N(C)C(=O)CO3)cs1 | 929 |
| CC1(C)CC(=O)c2cc3c(N)c(C(=O)Nc4ccccc4[N+](=O)[O-])sc3nc2C1 | 1100 |
| CCN1CCN(c2nccc(-c3cnc4nc(-c5ccncc5)nn4c3C)n2)CC1 | 562 |
| CCOC(=O)c1[nH]c(C)c(C(=O)N2CCC(CC(=O)N3CCN(C4CCCCC4)CC3)CC2)c1C | 598 |
| O=C(C1CCN(Cc2cc3ccccc3n2Cc2ccccc2)CC1)N1CCCCC1 | 757 |
| COc1ccc(-c2cn3c(CC(=O)NCCc4cccs4)csc3n2)cc1OC | 692 |
| CCOc1cccc(-c2noc(Cc3nnc(-c4cccc(Br)c4)o3)n2)c1 | 1160 |
| CCOC(=O)C(C)Oc1ccc2c(c1)O/C(=C\c1cc(Cl)cc3c1OCOC3)C2=O (stereo not given) | 1160 |
| CNC(=O)Nc1ccc(-c2nc(N3CC4CCC(C3)O4)c3cnn(C4CCC5(CC4)OCCO5)c3n2)cc1 | 794 |
| O=C(NCC1CCN(C(=O)Oc2ccccc2)CC1)c1cnccn1 | 689 |
| CCOC(=O)c1ccc(N2C=C(C#N)S(=O)(=O)c3cc(F)ccc32)cc1 | 907 |
| O=C(NCCC1CCN(C(=O)Nc2ccc(F)cc2F)CC1)c1ccsc1 | 757 |
| COc1ccc(CC(=O)Nc2nc(S(=O)(=O)Cc3ccccc3)ns2)cc1OC | 775 |
| CCc1nc2ccccc2n1CC(=O)NCC(C)C | 597 |
| CCN1CCN(CC2CCN(S(=O)(=O)c3cc(F)cc(F)c3)CC2)CC1 | 598 |
| Cc1cc2nc3sc(C(=O)NCCCN4CCN(C)CC4)cc(=O)n3c2cc1C | 730 |
| O=C(Nc1cccc(F)c1)N1CCC(CCNC(=O)C2(c3ccccc3)CC2)CC1 | 883 |
| COc1ccc(OC)c(NC2=NS(=O)(=O)C(c3ccccc3)=C2C)c1 | 948 |

| SMILES | RP-LC retention time [s] |
| --- | --- |
| O=C(N[C@@H]1CN(c2ccncn2)C[C@H]1CO)c1ccc2c(c1)OCO2 | 578 |
| Cc1ccc(-c2noc(-c3ccc(NCCCN4CCOCC4)nc3)n2)cc1 | 695 |
| CCC1=CC2CN3CCc4c([nH]c5ccccc45)[C@@](C(=O)OC)(C2)C13 | 681 |
| O=C([C@@H]1C[C@H](F)CN1C(=O)Nc1cccc(F)c1)N1CCOCC1 | 628 |
| Cc1ccsc1C(=O)Nc1ccc(OCc2nnc(-c3ccc(Cl)cc3)o2)cc1 | 1010 |
| Cc1cc(C)n(-c2ccc(N3CCN(C(=O)c4ccc(S(N)(=O)=O)cc4)CC3)nn2)n1 | 620 |
| CS(=O)(=O)N1CCC(C(=O)Nc2cccc(Br)c2)Oc2ccccc21 (stereo not given) | 996 |
| O=C(O)C1CCCN1C(=O)c1ccc(N2C(=O)C3C4C=CC(C4)C3C2=O)cc1 (stereo not given) | 642 |
| O=C(NCCCN1CCN(C2CCCCC2)CC1)c1ccc2c(c1)NC(=O)C1CCCCN21 (stereo not given) | 576 |
| COc1ccc(CC(=O)N2CCN(c3ccc(-c4nc(C)cs4)cn3)CC2)cc1OC | 788 |
| Cc1cc(Cl)ccc1S(=O)(=O)NCCn1c(C)cnc1C1CCC1 | 592 |
| O=C(Cc1ccccc1Cl)N1CCC2(C1)C(=O)Nc1ccccc12 (stereo not given) | 758 |
| Cc1oc(-c2[nH]ncc2C(=O)N2CCCC2)cc1S(=O)(=O)Nc1ccc(F)cc1F | 698 |
| Cc1ccsc1C(=O)Nc1ccc2c(N3CCCCC3)ncnc2c1 | 686 |
| Cc1ccc(N2C(=O)C3N=NN(c4ccc(F)cc4)C3C2=O)cc1C (stereo not given) | 1050 |
| CC(C)c1ccc(S(=O)(=O)N(CCN2CCCCC2C)CC(=O)N2CCNCC2)cc1 (stereo not given) | 610 |
| Cc1ccc(Nc2nc(C(=O)NC3CCCC3)nc3ccccc23)cc1 | 853 |
| COCCc1noc(-c2nc(-c3ccc(OC)cc3)no2)n1 | 976 |
| Cc1ccc(-c2nnc(-c3cccnc3NCCCN3CCOCC3)o2)cc1 | 690 |
| Cc1cc(=O)oc2c3c(cc(OCC(=O)N[C@@H](C(=O)O)C(C)C)c12)OC(C)(C)CC3 | 833 |
| O=C(NCCc1ccccc1)N(C1CCOCC1)C1CCN(Cc2cccnc2)CC1 | 604 |
| CCC(=O)Nc1cccn2nc(CC)nc12 | 657 |
| CCN1CCN(c2ccc(-c3ccc(C)c(S(=O)(=O)N4CCOCC4)c3)nn2)CC1 | 612 |

| SMILES | RP-LC retention time [s] |
| --- | --- |
| Cc1cc(NC(=O)Cn2cnc(-c3cccs3)cc2=O)no1 | 669 |
| COC(=O)c1ccc(S(=O)(=O)N2CCN(S(=O)(=O)C3CC3)CC2)cc1 | 878 |
| CC(C)CNS(=O)(=O)c1ccc(-c2nnc(C3CC3)o2)o1 | 809 |
| COc1ccc(C)cc1NS(=O)(=O)c1cc2c3c(c1)CCC(=O)N3CCC2 | 973 |
| O=C(O)CCC(=O)Nc1cccc(C(=O)O)c1 | 555 |
| COc1cc(NC(=O)Nc2c(-c3ccc(F)cc3)nc3ccccn23)cc(OC)c1 | 678 |
| O=C(NC1CCN(C(=O)C2CC2)C1)c1ccc(F)cc1 (stereo not given) | 666 |
| O=C(NC1CC1)[C@@H]1C[C@H](Oc2cccnc2)CN1C(=O)C1CCC1 | 557 |
| CC(NC(=O)Cn1c(=O)c2cccn2c2ccccc21)c1ccc2c(c1)OCCO2 (stereo not given) | 794 |
| CCOC(=O)c1[nH]c(C)c(C(=O)C(C)N(CC)C(=O)c2ccc(OC)cc2)c1C (stereo not given) | 795 |
| CC(C)(C)n1nnnc1C1CC2(CCOCC2)C(=O)N1Cc1cccc(F)c1 (stereo not given) | 784 |
| CCn1cc(CN2CCC(C(=O)NC3CCCCC3)CC2)c2cc(OC)ccc21 | 688 |
| CC1CCN(S(=O)(=O)c2ccc(-c3nnc(C(=O)NCC(C)c4ccccc4)o3)cc2)CC1 (stereo not given) | 1140 |
| O=C(NC1CC1)C1CCN(c2nc3ccc(-c4cccs4)nc3s2)CC1 | 809 |
| Clc1ccc(-c2cc3c(N4CCN(C5CCCCC5)CC4)nccn3n2)cc1 | 806 |
| CCCc1nnsc1C(=O)Nc1nnc(-c2cc3cccc(OC)c3o2)o1 | 1170 |
| CC(C)(C)c1ccc(/C=C/C(=O)Nc2ccc3c(c2)OCCO3)cc1 | 1190 |
| CC(C)OCCCNC(=O)C1CCN(S(=O)(=O)c2ccc(-c3noc(C4CC4)n3)cc2)CC1 | 890 |
| O=C(Cn1nc2c3cc(-c4ccc(F)cc4)nn3ccn2c1=O)N1CCCc2ccccc21 | 968 |
| Cc1cc(C(=O)N2CCC(c3noc(-c4cnccn4)n3)C2)nn1C (stereo not given) | 641 |
| O=c1c2nc(-c3ccccc3)cn2ccn1-c1ccc(Cl)cc1 | 841 |
| COc1ccc(NC(=O)C2(C)Oc3cccnc3NC2=O)c(OC)c1 (stereo not given) | 707 |
| O=C(Nc1ccc2c(c1)OCO2)C1CCN(C(=O)c2cccc(F)c2)CC1 | 753 |

| SMILES | RP-LC retention time [s] |
| --- | --- |
| CCc1nnc2nc(N3CCN(C(=O)COc4ccc(F)cc4)CC3)cc(C)n12 | 621 |
| O=C(NCc1cccc(Cl)c1)C1CCCN(c2nc3ncccc3n3cccc23)C1 (stereo not given) | 664 |
| CC1CCN(c2cc(-n3cnc(C(=O)NC4CCCC4)c3)ncn2)CC1 | 968 |
| COc1ccc(NC(=O)C2CCN(c3cnc4nc(C)c(C)nc4c3)CC2)c(C)c1 | 683 |
| NC(=O)C(=O)c1cn(Cc2ccc(F)cc2)c2ccccc12 | 811 |
| CCOc1ccc(-n2ccn3cc(-c4cc(C)ccc4C)nc3c2=O)cc1 | 951 |
| Cc1ccc(C(=O)NC2CCN(c3nnc4ccccn34)CC2)cc1N1CCCC1=O | 596 |
| COc1ccc(OC)c(NC(=O)C2CCCN(c3cnc4nccnc4c3)C2)c1 (stereo not given) | 730 |
| Cn1cc(-c2cc3n(n2)CCCN3C(=O)CCC(=O)NCCN2CCOCC2)c2ccccc21 | 618 |
| Cc1ccc(-c2nnc(N3CCC(C(=O)NCCCN4CCOCC4)CC3)o2)cc1 | 608 |
| O=C(NC1CCCC1)c1cc(C2CC2)[nH]n1 | 692 |
| CCNC(=O)c1ccc(-c2csc(C3CC3)n2)cc1 | 796 |
| CCc1noc(-c2cnc3nc(C)ccc3c2NCCc2ccccc2)n1 | 621 |
| CCOc1ccccc1-c1noc(CN2C(=O)C(C)Oc3ccccc32)n1 (stereo not given) | 1130 |
| COc1ccc(C(=O)c2c(C)n(CCN3CCOCC3)c3ccccc23)cc1 | 780 |
| O=c1ccn(-c2ccc(Cl)cc2)nc1-c1nc(-c2ccc(F)c(Br)c2)no1 | 1080 |
| CCOc1ccc(C(=O)N2C[C@@H]3C[C@H]2C[C@@H]3NS(=O)(=O)c2ccccc2)cc1 | 764 |
| O=C(Nc1ccc2c(c1)OCCO2)c1ccc(-c2ccnc(N3CCCC3)n2)cc1 | 768 |
| CC(C)(C)C(O)CCNC(=O)C(=O)NC1CC1 (stereo not given) | 622 |
| Cc1ccc(CNC(=O)C2(C)CCCN(C(=O)Nc3ccc(Br)c(C)c3)C2)cc1 (stereo not given) | 1110 |
| COC(=O)C1=CN(c2cc(C)cc(C)c2)c2ccccc2S1(=O)=O | 943 |
